IC50 data for 42 compounds are collected here from patent US11091451B2, “SHMT inhibitors and uses thereof” (Raze Therapeutics, Inc., priority 2016, dated 2021).

Test [1] addresses human cytosolic Serine Hydroxymethyl transferase 1 (SHMT1) (Homo sapiens (Human), UniProt P34896). Description: SHMT1 activity inhibition assay (serine production from glycine and CH2-THF, mass spectroscopy). Type of test: biochemical. As to conditions: 60 minutes at room temperature. From the text:
(§1) Full length human cytosolic Serine Hydroxymethyl transferase 1 (SHMT1, residues 1-483 in Uniport ID P34896) was expressed as an N-terminal His6 tagged protein and purified in E. coli using nickel capture followed by size-exclusion chromatography. Human mitochondrial SHMT2 (residues 30-504 in Uniprot ID P34897) with mitochondrial leader sequence deleted was expressed as an N-terminal His6 tagged protein and purified in E. coli using nickel capture followed by size-exclusion chromatography.
(§2) Serine hydroxymethyltransferases catalyze the reversible hydroxymethylation of glycine to serine, with methylene tetrahydrofolate (CH2-THF) providing the additional carbon. SHMT1 and SHMT2 activity was determined by measuring serine production from glycine and CH2-THF using mass spectroscopy. Briefly, 15 ul of 0.5 mM glycine and 0.2 mM CH2-THF in 20 mM TEA, pH8.0, 0.2 mM NADPH were added to 384 well plate containing 0, 0.05 mM, 0.005 mM or 0.0005 mM of inhibitor. 15 ul of SHMT1 or 2 were added to initiate the reaction. The plate was incubated for 60 minutes at room temperature and the reaction was quenched by the addition of 30 ul of 10% trichloroacetic acid. Serine produced was analyzed using Rapidfire 360 and API4000^+ in the positive ion mode.

Test [2] has as its target Human mitochondrial SHMT2 (Homo sapiens (Human), UniProt P34897). Description: SHMT2 activity inhibition assay (serine production from glycine and CH2-THF, mass spectroscopy). The test is classed as biochemical. As to conditions: 60 minutes at room temperature.
Text: as §1
as §2, with “15 ul of SHMT1 or 2 were added to initiate the reaction.” left out

human cytosolic Serine Hydroxymethyl transferase 1 (SHMT1), sequence (P34896 whole entry, the tested form may be a part): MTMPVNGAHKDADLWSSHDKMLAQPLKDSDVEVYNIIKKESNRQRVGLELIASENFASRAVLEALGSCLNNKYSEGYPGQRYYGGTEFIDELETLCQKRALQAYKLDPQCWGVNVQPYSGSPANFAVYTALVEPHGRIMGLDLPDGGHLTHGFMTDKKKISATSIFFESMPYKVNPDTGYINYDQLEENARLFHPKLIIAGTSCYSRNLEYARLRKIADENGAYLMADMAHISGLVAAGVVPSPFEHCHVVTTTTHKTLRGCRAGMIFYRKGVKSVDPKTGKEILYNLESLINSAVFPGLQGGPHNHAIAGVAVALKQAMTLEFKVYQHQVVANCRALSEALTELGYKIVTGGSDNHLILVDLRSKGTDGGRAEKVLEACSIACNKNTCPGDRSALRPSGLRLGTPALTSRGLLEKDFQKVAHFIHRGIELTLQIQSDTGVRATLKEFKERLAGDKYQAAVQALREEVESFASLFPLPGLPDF
Human mitochondrial SHMT2, sequence (P34897 30-504): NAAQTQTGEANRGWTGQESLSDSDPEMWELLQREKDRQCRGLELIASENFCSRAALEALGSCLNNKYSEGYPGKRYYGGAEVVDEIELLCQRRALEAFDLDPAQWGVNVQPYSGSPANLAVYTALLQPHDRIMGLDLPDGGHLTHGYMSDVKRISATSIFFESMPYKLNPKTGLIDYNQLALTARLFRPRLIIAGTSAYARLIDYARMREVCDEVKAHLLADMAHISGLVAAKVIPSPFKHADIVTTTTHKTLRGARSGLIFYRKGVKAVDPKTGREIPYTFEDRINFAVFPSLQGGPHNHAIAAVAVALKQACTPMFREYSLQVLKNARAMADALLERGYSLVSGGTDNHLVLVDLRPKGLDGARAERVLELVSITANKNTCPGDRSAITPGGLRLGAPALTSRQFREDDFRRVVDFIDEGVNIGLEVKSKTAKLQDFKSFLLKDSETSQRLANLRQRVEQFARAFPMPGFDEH

For `O=C(O)CNC(=O)Cc1cccc(-c2ccc(Cl)cc2Cl)c1` [Compound I-41], the IC50 in test [1] and in test [2] was 10 to 100 µM each time.
Consider `C[C@H](NC(=O)Cc1csc(-c2ccc(Cl)cc2Cl)n1)C(=O)O` [Compound I-35], for which the IC50 in test [1] and in test [2] was 10 to 100 µM throughout.
As to `O=C(Cc1csc(-c2ccc3c(c2)OCCO3)n1)NC1(C(=O)O)CCC1` [Compound I-37], the IC50 (in general, the concentration needed to halve the response being measured) in test [1] was 10 to 100 µM; in test [2] it was 1 to 10 µM.
As for `Cc1cccc(-c2cc(Cl)ccc2-c2nc(CC(=O)NC(C)(C)C(=O)O)cs2)c1` [Compound I-4], the IC50 in test [1] and in test [2] was less than 1 µM throughout.
With `C[C@H](NC(=O)Cc1csc(-c2cccc(Br)c2)n1)C(=O)O` [Compound I-39], the IC50 in test [1] and in test [2] was 10 to 100 µM throughout.
With `O=C(O)CNC(=O)Cc1csc(-c2ccc3c(c2)OCCO3)n1` [Compound I-62, 2-[2-[2-(2,3-dihydro-1,4-benzodioxin-6-yl)-1,3-thiazol-4-yl]acetamido]acetic Acid], the IC50 in test [1] and in test [2] was 100 to 500 µM throughout.
As for `CC(C)(NC(=O)Cc1cncc(-c2ccc(Cl)cc2-c2ccccc2)c1)C(=O)O` [Compound I-17, 2-[[2-[5-(4-Chloro-2-phenyl-phenyl)-3-pyridyl]acetyl]amino]-2-methyl-propanoic Acid], the IC50 was 1 to 10 µM in test [1] and less than 1 µM in test [2].
For `NC(=O)NCCC[C@@H](NC(=O)Cc1csc(-c2ccc(F)cc2)n1)C(=O)O` [Compound I-44], the IC50 in test [1] lay in the range of 10 to 100 µM; in test [2], 100 to 500 µM.
Turning to `O=C(O)CNC(=O)Cc1csc(-c2ccc(Cl)c3ccccc23)n1` [Compound I-40, 2-[2-[2-(4-chloronaphthalen-1-yl)-1,3-thiazol-4-yl]acetamido]acetic Acid], the IC50 in test [1] and in test [2] was 10 to 100 µM in each case.
Turning to `O=C(Cc1csc(-c2ccc(Cl)cc2Cl)n1)NC1(C(=O)O)CCC1` [Compound I-28], the IC50 in test [1] fell in the range of 10 to 100 µM; in test [2], 1 to 10 µM.
For `COc1ccccc1-c1nc(CC(=O)NC(C)C(=O)O)cs1` (stereo not drawn) [Compound I-61], the IC50 is 100 to 500 µM in test [1] and 10 to 100 µM in test [2].
The corresponding values for `CC(C)(NC(=O)Cc1cccc(-c2ccc(Cl)cc2-c2ccc(F)cc2)c1)C(=O)O` [Compound I-15, 2-[[2-[3-[4-Chloro-2-(4-fluorophenyl)phenyl]phenyl]acetyl]amino]-2-methyl-propanoic Acid] are 1 to 10 µM and less than 1 µM.
For `CCc1cc(Cl)ccc1-c1nc(CC(=O)NC(C)(C)C(=O)O)cs1` [Compound I-27], in that order: 10 to 100 µM and 1 to 10 µM.
`CC(C)C[C@H](NC(=O)Cc1csc(-c2ccc(Cl)cc2Cl)n1)C(=O)O` [Compound I-47]: the IC50 in test [1] and in test [2] was 100 to 500 µM throughout.
As for `O=C(O)CNC(=O)Cc1csc(-c2ccc(Cl)cc2CCO)n1` [Compound I-70, 2-(2-[2-[4-chloro-2-(2-hydroxyethyl)phenyl]-1,3-thiazol-4-yl]acetamido) acetic Acid], the IC50 in test [1] and in test [2] was 100 to 500 µM throughout.
`CCc1cccc(-c2cc(Cl)ccc2-c2nc(CC(=O)NC(C)(C)C(=O)O)cs2)c1` [Compound I-12]: the values for the IC50 in test [1] and in test [2] were 1 to 10 µM and less than 1 µM, respectively.
In the case of `CSCC[C@H](NC(=O)Cc1csc(-c2ccc(Cl)cc2Cl)n1)C(=O)O` [Compound I-48], the IC50 in test [1] and in test [2] was 100 to 500 µM each time.
For the compound `CC(C)(NC(=O)Cc1csc(-c2ccc(Cl)cc2C2CCNCC2)n1)C(=O)O` [Compound I-31, 2-[[2-[2-[4-Chloro-2-(4-piperidyl)phenyl]thiazol-4-yl]acetyl]amino]-2-methyl-propanoic Acid], the half-maximal inhibitory concentration (IC50) in test [1] was 10 to 100 µM; in test [2], 1 to 10 µM.
Take `O=C(Cc1csc(-c2ccccc2Cl)n1)N[C@@H](Cc1ccccc1)C(=O)O` [Compound I-69]: the IC50 in test [1] and in test [2] was 100 to 500 µM each time.
As for `CC(C)Cc1cc(Cl)ccc1-c1nc(CC(=O)NC(C)(C)C(=O)O)cs1` [Compound I-21], the IC50 was 1 to 10 µM in test [1] and less than 1 µM in test [2].
In the case of `O=C(Cc1csc(-c2ccc(Cl)cc2)n1)N[C@@H](C(=O)O)c1ccccc1` [Compound I-63], the IC50 in test [1] and in test [2] was 100 to 500 µM in each case.
As for `O=C(O)CNC(=O)Cc1csc(-c2ccc(Cl)c(-c3ccccc3)c2)n1` [Compound I-36], the IC50 in test [1] and in test [2] was 10 to 100 µM throughout.
Take `CC(C)c1ccc(-c2nc(CC(=O)N[C@@H](C(=O)O)c3ccccc3)cs2)cc1` [Compound I-54]: the 50% inhibitory concentration (IC50) in test [1] and in test [2] was 100 to 500 µM throughout.
`CC(C)(NC(=O)Cc1csc(-c2ccc(Cl)cc2-c2cccc3c2COC3)n1)C(=O)O` [Compound I-7]: the 50% inhibitory concentration (IC50) in test [1] and in test [2] was less than 1 µM throughout.
In the case of `CC(C)(NC(=O)Cc1csc(-c2ccc(Cl)cc2C2CC2)n1)C(=O)O` [Compound I-26], the IC50 in test [1] fell in the range of 10 to 100 µM; in test [2], 1 to 10 µM.
For `CC(C(=O)NCC(=O)O)c1csc(-c2ccc(Cl)cc2Cl)n1` (stereo not drawn) [Compound I-38], the IC50 in test [1] and in test [2] was 10 to 100 µM in each case.
Take `CC(C)(C(=O)NCC(=O)O)c1csc(-c2ccc(Cl)cc2Cl)n1` [Compound I-64, 2-[2-[2-(2,4-dichlorophenyl)-1,3-thiazol-4-yl]-2-methylpropanamido]acetic Acid]: the 50% inhibitory concentration (IC50) in test [1] and in test [2] was 100 to 500 µM throughout.
Regarding `CC(C)(NC(=O)Cc1csc(-c2ccc(Cl)cc2-c2cccc(C#N)c2)n1)C(=O)O` [Compound I-1, 2-[[2-[2-[4-Chloro-2-(3-cyanophenyl)phenyl]thiazol-4-yl]acetyl]amino]-2-methyl-propanoic Acid], the concentration for half-maximal inhibition (IC50) in test [1] and in test [2] was less than 1 µM throughout.
Consider `CC(C)(NC(=O)Cc1cccc(-c2ccc(Cl)cc2)c1)C(=O)O` [Compound I-30, 2-[2-[3-(4-chlorophenyl)phenyl]acetamido]-2-methylpropanoic Acid], for which the results for the concentration for half-maximal inhibition (IC50) in test [1] and in test [2] were 10 to 100 µM and 1 to 10 µM, respectively.
In the case of `O=C(O)CNC(=O)Cc1csc(-c2ccc(Cl)cc2Cl)n1` [Compound I-46], the IC50 in test [1] and in test [2] was 10 to 100 µM throughout.
Consider `CC(C)c1ccc(-c2nc(CC(=O)N[C@@H](Cc3c[nH]c4ccccc34)C(=O)O)cs2)cc1` [Compound I-51], for which the IC50 in test [1] and in test [2] was 100 to 500 µM each time.
As for `CC[C@@H](C)[C@H](NC(=O)Cc1csc(-c2cccc(Cl)c2)n1)C(=O)O` [Compound I-32], the IC50 in test [1] and in test [2] was 10 to 100 µM throughout.
As to `CC(=O)N1CCC(c2cc(Cl)ccc2-c2nc(CC(=O)NC(C)(C)C(=O)O)cs2)CC1` [Compound I-11, 2-[[2-[2-[2-(1-Acetyl-4-piperidyl)-4-chloro-phenyl]thiazol-4-yl]acetyl]amino]-2-methyl-propanoic Acid], the values for the IC50 in test [1] and in test [2] were 1 to 10 µM and less than 1 µM, respectively.
`CC(C)(NC(=O)Cc1ccnc(-c2ccc(Cl)cc2-c2ccccc2)n1)C(=O)O` [Compound I-29]: the IC50 in test [1] was in the range of 10 to 100 µM; in test [2], 1 to 10 µM.
`Cc1sc(-c2ccc(Cl)cc2Cl)nc1CC(=O)NC(C)(C)C(=O)O` [Compound I-33]: the results for the IC50 in test [1] and in test [2] were 10 to 100 µM and 1 to 10 µM, respectively.
For `CC(C)(NC(=O)Cc1csc(-c2ccc(Cl)cc2Cl)n1)C(=O)O` [Compound I-24], in that order: 1 to 10 µM and less than 1 µM.
In the case of `CC(C)(NC(=O)Cc1csc(-c2ccc(Cl)cc2CC2CCC2)n1)C(=O)O` [Compound I-10, 2-[[2-[2-[4-Chloro-2-(cyclobutylmethyl)phenyl]thiazol-4-yl]acetyl]amino]-2-methyl-propanoic Acid], the IC50 in test [1] and in test [2] was less than 1 µM each time.
In the case of `CC[C@@H](C)[C@H](NC(=O)Cc1csc(-c2ccc(Cl)cc2Cl)n1)C(=O)O` [Compound I-67], the IC50 in test [1] and in test [2] was 100 to 500 µM each time.
For `O=C(O)CNC(=O)Cc1csc(-c2cccc(Cl)c2Cl)n1` [Compound I-59], the IC50 in test [1] and in test [2] was 100 to 500 µM each time.
On to `C[C@H](NC(=O)Cc1csc(-c2ccccc2F)n1)C(=O)O` [Compound I-71], for which the half-inhibitory concentration (IC50) in test [1] and in test [2] was 100 to 500 µM in each case.
In the case of `COc1cc(-c2nc(CC(=O)NC(C)(C)C(=O)O)cs2)c(-c2ccccc2)cc1Cl` [Compound I-8, 2-[[2-[2-(4-chloro-5-methoxy-2-phenyl-phenyl)thiazol-4-yl]acetyl]amino]-2-methyl-propanoic Acid], the IC50 in test [1] and in test [2] was less than 1 µM in each case.
For `O=C(Cc1csc(-c2ccc(Cl)cc2Cl)n1)NC1(C(=O)O)CC1` [Compound I-45], the concentration for half-maximal inhibition (IC50) in test [1] and in test [2] was 10 to 100 µM each time.
